Source: patent publication EP4703354A1, “COMPOUND AS CCR6 ANTAGONIST, AND PHARMACEUTICAL COMPOSITION AND USE THEREOF” (Wuhan Createrna Science and Technology Co.,Ltd., priority 2023, dated 2024)
Read-outs that look alike come from different tables or passages of the source.

What was measured:
[1] = in vitro liver microsome metabolic stability, beagle dog; assay type: in vitro ADME; conditions: Beagle dog liver microsomes, 37°C
Outline: (§1)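 Test compound at 1 µM final (100 µM working solution diluted 1:100) incubated at 37°C with liver microsomes in pH 7.4 phosphate buffer with NADP/G6P/G6PDH/MgCl2 regenerating system; sampled 0–30 min, LC-MS/MS vs internal standard. T1/2 = 0.693/k from remaining-fraction decay.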

[2] = in vitro liver microsome metabolic stability, human; assay type: in vitro ADME; conditions: Human liver microsomes, 37°C
Outline: as §1

human CCR6 = biological target: T1, human CCR6 (Homo sapiens, UniProt P51684); assay: human CCR6 calcium flux activity (FLIPR, HEK293 cells stably expressing human CCR6, CCL20 stimulation); assay type: cell-based; conditions: HEK293 cells stably expressing human CCR6, EC80 human MIP-3 alpha/CCL20; read-out: CCR6 inhibitory activity, IC50
T1 construct: expressed in transfected cells; host or cells: HEK293
T1 sequence (P51684 1-374): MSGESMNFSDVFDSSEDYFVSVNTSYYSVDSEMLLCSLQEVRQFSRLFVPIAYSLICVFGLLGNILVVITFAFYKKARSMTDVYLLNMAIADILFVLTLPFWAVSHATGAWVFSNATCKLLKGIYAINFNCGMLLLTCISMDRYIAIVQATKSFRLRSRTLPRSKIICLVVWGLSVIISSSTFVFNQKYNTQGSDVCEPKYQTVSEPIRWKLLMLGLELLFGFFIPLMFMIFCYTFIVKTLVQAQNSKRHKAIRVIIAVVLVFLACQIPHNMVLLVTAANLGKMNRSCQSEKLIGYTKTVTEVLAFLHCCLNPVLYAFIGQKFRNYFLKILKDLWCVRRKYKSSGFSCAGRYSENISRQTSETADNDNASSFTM
Outline: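 Read-out is the RFUMax−RFUMin calcium signal (494/516 nm, 90 s) after EC80 CCL20 addition, fitted four-parameter for IC50. Before agonist, Fluo-4 Direct-loaded cells sat with compound 50 min at 37 °C plus 10 min at room temperature.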

[3] = in vitro liver microsome metabolic stability, mouse; assay type: in vitro ADME; conditions: Mouse liver microsomes, 37°C
Experimental: Preparation of working solutions for test compounds and standards: An appropriate amount of the compound was accurately weighed and dissolved in a corresponding volume of suitable solvent to prepare 1 mM stock solutions of the test compounds and standards. The stock solutions were then diluted with appropriate solvent to obtain 100 µM working solutions of the test compounds, ensuring that the DMSO content in the working solutions remained below 10%.
The internal standard compound testosterone (or tolbutamide) and its corresponding solvent, internal standard concentration (200 ng/mL), were selected based on the properties of the test compound.
• Solution A: 0.1 mol/L K2HPO4 (2.28 g K2HPO4·3H2O was dissolved in 100 mL of double-distilled water); • Solution B: 0.1 mol/L KH2PO4 (1.36 g KH2PO4 was dissolved in 100 mL of double-distilled water); • 80.2 mL of Solution A and 19.8 mL of Solution B were mixed thoroughly, and the pH was adjusted to 7.4.
37.5 mg of glycine was weighed, dissolved in 100 mL of ultrapure water, and adjusted to pH 8.0 with NaOH.
1.25 mg of glucose-6-phosphate dehydrogenase (400 U/mg) was weighed (the specific amount weighed was calculated based on the activity of the purchased glucose-6-phosphate dehydrogenase), dissolved in 1 mL of glycine buffer to a concentration of 500 U/mL, aliquoted into 20 µL per tube, and stored at -20°C for future use.
7.83 mg of NADP, 0.06 mL of D-glucose-6-phosphate (260 mg/mL), and 10.17 mg of MgCl2·6H2O were precisely weighed.
The mixture was dissolved in 1 mL of pure water. The cofactor ratio composition: NADP 10 mM, D-glucose-6-phosphate 60 mM, MgCl2·6H2O 50 mM.
The reaction system (taking a 500 µL system as an example) was composed of the following solution ratios: 416.5 µL phosphate buffer, 5 µL compound working solution, 25 µL liver microsomes, 3.5 µL glucose-6-phosphate dehydrogenase, and 50 µL cofactor solution. The total incubation volume could be adjusted according to experimental requirements.
416.5 µL of phosphate buffer was taken, 25 µL of liver microsomes, 3.5 µL of glucose-6-phosphate dehydrogenase, and 50 µL of cofactor solution were added, vortexed twice to mix, and preincubated in a 37°C water bath for 5 minutes. Then, 5 µL of the test compound working solution was added, vortexed twice to mix, each time for 2-3 seconds, and placed in a 37°C water bath to initiate the reaction, with two parallel samples set. At 0.5 min, 1 min, 2 min, 5 min, 15 min, and 30 min after the reaction, 50 µL of the mixture was taken and added to centrifuge tubes containing 200 µL of 0°C pre-cooled internal standard working solution to terminate the reaction, vortexed for 1 minute to mix, and centrifuged at 13,000 rpm for 10 minutes in a 4°C pre-cooled high-speed centrifuge. The supernatant was collected for analysis. After the compound was added and vortex-mixed, 50 µL of the mixture was rapidly transferred to a centrifuge tube containing 200 µL of a pre-cooled (0°C) internal standard working solution to terminate the reaction, vortex-mixed for 1 minute, and used as the relative zero-point sample (relative to the standard group). The sample was then placed into a 37°C water bath to initiate the reaction, and timing was started.
The sample analysis of the test compound was performed using the liquid chromatography-tandem mass spectrometry (LCMS/MS) method. The semi-quantitative determination was performed using the ratio of the analyte peak area to the internal standard peak area. The retention times of the analyte and internal standard, chromatogram acquisition, and chromatogram integration were processed using Analyst software.
The in vitro elimination rate constant k of the test compound and the control compound was determined by converting the ratio of the peak area of the test compound to the internal standard into the remaining rate, and T1/2 was then calculated according to the following formula. T1/2 = (Ln2)/(k) = (0.693)/(k) [formula] Table 3. […]

[4] = in vitro liver microsome metabolic stability, rat; assay type: in vitro ADME; conditions: Rat liver microsomes, 37°C
Outline: as §1

[5] = in vivo pharmacokinetic study in SD rats; conditions: rat; for bioavailability: 1 mg/kg PO vs 1 mg/kg IV, read-out: Oral bioavailability F (%); for AUC(0-t) / Cmax / half-life: 1 mg/kg
Outline: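 Male SD rats (180-200 g), 3 per route: single fasted oral gavage in 1% Tween 80 or tail-vein IV bolus in 50% PEG400. Orbital blood into EDTA-K2 sampled to 8 h; plasma analysed and PK parameters derived by non-compartmental analysis.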

SMILES	Liver microsome T1-2 (min) Beagle dog [1] [min]	Liver microsome T1-2 (min) Human [2] [min]	IC50 (human CCR6) [µM]	Liver microsome T1-2 (min) Mouse [3] [min]	Liver microsome T1-2 (min) Rat [4] [min]	bioavailability ([5]; in vivo) [%]	AUC(0-t) ([5]; in vivo, IV) [ng·h/mL]	Cmax ([5]; in vivo, IV) [ng/mL]	half-life ([5]; in vivo, IV) [min]	AUC(0-t) ([5]; in vivo, PO) [ng·h/mL]	Cmax ([5]; in vivo, PO) [ng/mL]	half-life ([5]; in vivo, PO) [min]	bioavailability ([5]; male, plasma) [%]	AUC(0-t) ([5]; male, plasma, IV) [ng·h/mL]	Cmax ([5]; male, plasma, IV) [ng/mL]	AUC(0-t) ([5]; male, plasma, PO) [ng·h/mL]	Cmax ([5]; male, plasma, PO) [ng/mL]
CN(C)C(=O)c1nccc(Nc2c(NC(c3nc(Cl)ccc3F)C3(C)CC4CC4C3)c(=O)c2=O)c1O (stereo not shown) [compound 085, 4-((2-(((6-chloro-3-fluoropyridin-2-yl)(3-methylbicyclo[3.1.0]hexan-3-yl)methyl)amino)-3,4-dioxocyclobut-1-en-1-yl)amino)-3-hydroxy-N,N-dimethylpicolinamide]	204.66	226.52	0.038	54.79	56.96	–	–	–	–	–	–	–	–	–	–	–	–
CN(C)C(=O)c1nccc(Nc2c(NC(c3ncccn3)C3(C)CCCC3)c(=O)c2=O)c1O (racemic) [compound 017]	848.60	1176.24	0.01	1273.80	324.15	–	–	–	–	–	–	–	–	–	–	–	–
CN(C)C(=O)c1nccc(Nc2c(N[C@@H](c3cccc(F)n3)C3(C)CCCC3)c(=O)c2=O)c1O [compound 002, (R)-4-((2-(((6-fluoropyridin-2-yl)(1-methylcyclopentyl)methyl)amino)-3,4-dioxocyclobut-1-en-1-yl)amino)-3-hydroxy-N,N-dimethylpicolinamide]	202.32	281.53	0.007	1127.82	85.28	–	–	–	–	–	–	–	–	–	–	–	–
CN(C)C(=O)c1nccc(Nc2c(NC(c3nc(F)ccc3F)C3(C)CC4CC4C3)c(=O)c2=O)c1O (stereo not shown) [compound 126, 4-((2-(((3,6-difluoropyridin-2-yl)(3-methylbicyclo[3.1.0]hexan-3-yl)methyl)amino)-3,4-dioxocyclobut-1-en-1-yl)amino)-3-hydroxy-N,N-dimethylpicolinamide]	331.52	531.62	–	≥120	58.22	–	–	–	–	–	–	–	26.9	1550	3900	417	266

Continued, values first:

Liver microsome T1-2 (min) Beagle dog [1] [min]	Liver microsome T1-2 (min) Human [2] [min]	IC50 (human CCR6) [µM]	Liver microsome T1-2 (min) Mouse [3] [min]	Liver microsome T1-2 (min) Rat [4] [min]	bioavailability ([5]; in vivo) [%]	AUC(0-t) ([5]; in vivo, IV) [ng·h/mL]	Cmax ([5]; in vivo, IV) [ng/mL]	half-life ([5]; in vivo, IV) [min]	AUC(0-t) ([5]; in vivo, PO) [ng·h/mL]	Cmax ([5]; in vivo, PO) [ng/mL]	half-life ([5]; in vivo, PO) [min]	bioavailability ([5]; male, plasma) [%]	AUC(0-t) ([5]; male, plasma, IV) [ng·h/mL]	Cmax ([5]; male, plasma, IV) [ng/mL]	AUC(0-t) ([5]; male, plasma, PO) [ng·h/mL]	Cmax ([5]; male, plasma, PO) [ng/mL]	SMILES
1250.74	1048.05	0.0329	228.33	801.17	–	–	–	–	–	–	–	–	–	–	–	–	CN(C)C(=O)c1nccc(Nc2c(NC(c3nc(F)ccc3F)C3(C)CC(F)(F)CO3)c(=O)c2=O)c1O (stereo not shown) [compound 062, 4-((2-(((4,4-difluoro-2-methyltetrahydrofuran-2-yl)(3,6-difluoropyridin-2-yl)methyl)amino)-3,4-dioxocyclobut-1-en-1-yl)amino)-3-hydroxy-N,N-dimethylpicolinamide]
200.21	197.68	0.0039	≥120	39.70	–	–	–	–	–	–	–	–	–	–	–	–	Cc1cc(F)cnc1[C@H](Nc1c(Nc2ccnc(C(=O)N(C)C)c2O)c(=O)c1=O)C1(C)CCCC1 [compound 065, (R)-4-((2-(((5-fluoro-3-methylpyridin-2-yl)(1-methylcyclopentyl)methyl)amino)-3,4-dioxocyclobut-1-en-1-yl)amino)-3-hydroxy-N,N-dimethylpicolinamide]
369.92	324.84	–	1846.01	97.61	60.2	739	3780	17.4	444	268	57.6	–	–	–	–	–	CN(C)C(=O)c1nccc(Nc2c(NC(C#CC3CCC3)C3(C)CC(F)(F)CO3)c(=O)c2=O)c1O (stereo not shown) [compound 110]
320.98	672.88	0.0123	6368.42	90.26	–	–	–	–	–	–	–	–	–	–	–	–	CN(C)C(=O)c1nccc(Nc2c(N[C@@H](c3ccccn3)C3(C)CCCC3)c(=O)c2=O)c1O [compound 004, (R)-3-hydroxy-N,N-dimethyl-4-((2-(((1-methylcyclopentyl)(pyridin-2-yl)methyl)amino)-3,4-dioxocyclobut-1-en-1-yl)amino)picolinamide]
271.86	271.15	0.0074	1925.01	116.86	–	–	–	–	–	–	–	–	–	–	–	–	CN(C)C(=O)c1nccc(Nc2c(N[C@@H](c3cc(F)cc(F)n3)C3(C)CCCC3)c(=O)c2=O)c1O [compound 022, (R)-4-((2-(((4,6-difluoropyridin-2-yl)(1-methylcyclopentyl)methyl)amino)-3,4-dioxocyclobut-1-en-1-yl)amino)-3-hydroxy-N,N-dimethylpicolinamide]
